In patent publication US20140349948A1, “Treatment of Chronic Constipation” (Forest Laboratories Holdings Limited, priority 2009, published 2014):
Marks after values point to notes of the source that are not given here. Residues, ends and D or L forms follow the SMILES beside them.

What was measured:
[1] = system: patients meeting modified Rome II criteria for chronic constipation; assay: Chronic Constipation Trial 1, 12-week treatment period; type: in vivo, human; conditions: for Straining, Week 1 Mean Change from Baseline / Abdominal discomfort, Week 1 Mean Change from Baseline / Bloating, Week 1 Mean Change from Baseline / Constipation severity, Week 1 Mean Change from Baseline: 5-point scale: 1 = none; for Straining, Week 1 Mean Change from Baseline: 5 = an extreme amount; for Abdominal discomfort, Week 1 Mean Change from Baseline / Bloating, Week 1 Mean Change from Baseline / Constipation severity, Week 1 Mean Change from Baseline: 5 = very severe; for Stool Consistency, Week 1 Mean Change from Baseline: 7-point scale (BSFS)
Method: (§1) Linaclotide Capsules from Example 4 were administered in multicenter, randomized, double-blind, placebo-controlled trials.
(§2) Trial 1 was conducted in 630 patients meeting modified Rome II criteria for chronic constipation. The trial included a two-week pretreatment baseline period and a 12-week treatment period. A diagram of the study design for Trial 2 is given in FIG. 1, which is substantially similar to Trial 1 except for the addition of a Randomized Withdrawal period in Trial 2 as described below.
The Pretreatment Period is defined as the 14 to 21 calendar days immediately before starting the trial during which where patients provided information related to their daily bowel habits, daily assessment of the symptom severity, constipation severity, and use of other medicines, laxatives, suppositories, and/or enemas. Patients who satisfy the necessary criteria were entered into the Treatment Period. During the two-week pretreatment period, 72 percent of patients in Trial 1 had no CSBMs. A CSBM is an bowel movement that occurs in the absence of laxative, enema, or suppository usage within the preceding 24 hours that is accompanied by the patient self-reporting a feeling of complete emptying of the bowel.
(§3) The Treatment Period began with randomization and lasted for 12 weeks. Patients were randomized to treatment with 133 μg linaclotide, 266 μg linaclotide, or placebo (1:1:1), taken once daily in the morning. Patients continued to provide their daily assessments such as their daily bowel habit assessments and daily patient symptom severity assessments.

[2] = system: patients with chronic constipation; assay: Chronic Constipation Trial 2, 12-week treatment period; type: in vivo, human
Method: as §1, §2, §3
Trial 2 was conducted in 642 patients and was identical to Trial 1 except that Trial 2 also included a four-week Randomized Withdrawal Period, defined below. During the two-week pretreatment (baseline) period, 68 percent of patients in Trial 2 had no CSBMs.

[3] = Trial 1, 133 μg (p≦0.0001) and 266 μg (p≦0.0001)
[4] = Trial 1, 133 μg (p≦0.001) and 266 μg (p≦0.0001)
[5] = 133 μg, Trial 2 (n = 217), 5-point scale: 1 = none, 5 = very severe

For `C[C@@H]1NC(=O)[C@@H]2CCCN2C(=O)[C@H](CC(N)=O)NC(=O)[C@@H]2CSSC[C@H](N)C(=O)N[C@H]3CSSC[C@H](NC1=O)C(=O)N[C@@H]([C@@H](C)O)C(=O)NCC(=O)N[C@H](C(=O)N[C@@H](Cc1ccc(O)cc1)C(=O)O)CSSC[C@H](NC(=O)[C@H](Cc1ccc(O)cc1)NC(=O)[C@H](CCC(=O)O)NC3=O)C(=O)N2` [Linaclotide, Cys1 Cys2 Glu3 Tyr4 Cys5 Cys6 Asn7 Pro8 Ala9 Cys10 Thr11 Gly12 Cys13 Tyr14] (HELM PEPTIDE1{C.C.E.Y.C.C.N.P.A.C.T.G.C.Y}$PEPTIDE1,PEPTIDE1,1:R3-6:R3|PEPTIDE1,PEPTIDE1,2:R3-10:R3|PEPTIDE1,PEPTIDE1,5:R3-13:R3$$$V2.0), the “CSBM rate, Week 1 Mean Change from Baseline” value (“CSBM rate, Week 1 Mean Change” for short) ([1]; 133 μg, Trial 1 (n = 213)) was 1.94***, the “SBM rate, Week 1 Mean Change from Baseline” value ([1]; 133 μg, Trial 1 (n = 213)) was 4.09*** and the “Straining, Week 1 Mean Change from Baseline” value (shortened to “Straining, Week 1 Mean Change”) ([1]; 133 μg, Trial 1 (n = 213)) was −1.04***. For the same compound, the “Abdominal discomfort, Week 1 Mean Change from Baseline” value ([1]; 133 μg, Trial 1 (n = 213)) was −0.27**, the “Bloating, Week 1 Mean Change from Baseline” value (shortened to “Bloating, Week 1 Mean Change”) ([1]; 133 μg, Trial 1 (n = 213)) was −0.31* and the “Constipation severity, Week 1 Mean Change from Baseline” value ([1]; 133 μg, Trial 1 (n = 213)) was −0.78***. The “Stool Consistency, Week 1 Mean Change from Baseline” value ([1]; 133 μg, Trial 1 (n = 213)) was 1.79***, the “CSBM rate, Week 1 Mean Change” value ([1]; 266 μg, Trial 1 (n = 202)) was 2.63*** and the “SBM rate, Week 1 Mean Change from Baseline” value ([1]; 266 μg, Trial 1 (n = 202)) was 4.09***. For the same compound, the “Straining, Week 1 Mean Change” value ([1]; 266 μg, Trial 1 (n = 202)) was −1.10***, the “Abdominal discomfort, Week 1 Mean Change from Baseline” value ([1]; 266 μg, Trial 1 (n = 202)) was −0.28*** and the “Bloating, Week 1 Mean Change” value ([1]; 266 μg, Trial 1 (n = 202)) was −0.36***. For the same compound, the “Constipation severity, Week 1 Mean Change from Baseline” value ([1]; 266 μg, Trial 1 (n = 202)) was −0.81***, the “Stool Consistency, Week 1 Mean Change from Baseline” value ([1]; 266 μg, Trial 1 (n = 202)) was 1.96*** and the “12-week CSBM overall responder rate” value ([1]; Trial 1, 133 μg) was 16.0%. For the same compound, the “increase in average weekly CSBMs from baseline” value ([1]; Trial 1, 133 μg) was 2.0, the “increase in average weekly SBMs from baseline” value ([1]; Trial 1, 133 μg) was 3.4 and the “numerical increase of 12-week CSBM overall responder rate as compared to placebo” value ([1]; Trial 1, 133 μg) was 2.6 fold. The “patients reporting at least one CSBM within 24 hours of treatment” value ([1]; Trial 1, 133 μg) was 28.2%, the “patients reporting at least one SBM within 24 hours of treatment” value ([1]; Trial 1, 133 μg) was 64.3% and the “patients with increase of ≧1 from baseline in weekly CSBMs in at least nine out of 12 weeks” value ([1]; Trial 1, 133 μg) was 31.0%. The “patients with increase of ≧1 from baseline in weekly CSBMs in at least six out of 12 weeks” value ([1]; Trial 1, 133 μg) was 47.4%, the “patients with ≧3 weekly CSBMs in at least nine out of 12 weeks” value ([1]; Trial 1, 133 μg) was 16.0% and the “12-week CSBM overall responder rate” value ([1]; Trial 1, 266 μg) was 21.3%. The “increase in average weekly CSBMs from baseline” value ([1]; Trial 1, 266 μg) was 2.7, the “increase in average weekly SBMs from baseline” value ([1]; Trial 1, 266 μg) was 3.7 and the “numerical increase of 12-week CSBM overall responder rate as compared to placebo” value ([1]; Trial 1, 266 μg) was 3.5 fold. The “patients reporting at least one CSBM within 24 hours of treatment” value ([1]; Trial 1, 266 μg) was 29.7%, the “patients reporting at least one SBM within 24 hours of treatment” value ([1]; Trial 1, 266 μg) was 60.4% and the “patients with increase of ≧1 from baseline in weekly CSBMs in at least nine out of 12 weeks” value ([1]; Trial 1, 266 μg) was 40.1%. For the same compound, the “patients with increase of ≧1 from baseline in weekly CSBMs in at least six out of 12 weeks” value ([1]; Trial 1, 266 μg) was 51.0%, the “patients with ≧3 weekly CSBMs in at least nine out of 12 weeks” value ([1]; Trial 1, 266 μg) was 21.8% and the “PAC-QOL overall assessments, 12 week overall mean change versus placebo” value [1, 3] was “statistically significant improvements”. The “PAC-QOL subscale score Physical Discomfort versus placebo” value [1, 3] was “statistically significant improvements”, the “PAC-QOL subscale score Satisfaction versus placebo” value [1, 3] was “statistically significant improvements” and the “PAC-QOL subscale score Worries/Concerns versus placebo” value [1, 3] was “statistically significant improvements”. For the same compound, the “severity of straining score, 12 week overall mean change versus placebo” value [1, 3] was “statistically significant improvements”, the “stool consistency score, 12 week overall mean change versus placebo” value [1, 3] was “statistically significant improvements” and the “abdominal discomfort score, 12 week overall mean change versus placebo” value [1, 4] was “statistically significant improvements”. The “bloating score, 12 week overall mean change versus placebo” value [1, 4] was “statistically significant improvements”, the “constipation severity score, 12 week overall mean change versus placebo” value [1, 4] was “statistically significant improvements” and the “CSBM rate, Week 1 Mean Change” value ([2]; 133 μg, Trial 2 (n = 217)) was 1.89***. For the same compound, the “SBM rate, Week 1 Mean Change from Baseline” value ([2]; 133 μg, Trial 2 (n = 217)) was 3.59***, the “Straining, Week 1 Mean Change” value ([2]; 133 μg, Trial 2 (n = 217), 5-point scale: 1 = none, 5 = an extreme amount) was −0.99*** and the “Abdominal discomfort, Week 1 Mean Change from Baseline” value [2, 5] was −0.23. The “Bloating, Week 1 Mean Change” value [2, 5] was −0.32**, the “Constipation severity, Week 1 Mean Change from Baseline” value [2, 5] was −0.80*** and the “Stool Consistency, Week 1 Mean Change from Baseline” value ([2]; 133 μg, Trial 2 (n = 217), 7-point scale (BSFS)) was 1.75***. The “CSBM rate, Week 1 Mean Change” value ([2]; 266 μg, Trial 2 (n = 216)) was 2.02***.
